Laboratory results reported in ChEMBL document CHEMBL1201862, “PubChem BioAssay data set” (2004).
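In this assay, cells in 96-well plates receive the compound at five concentrations for 48 hours. Endpoints are linearly interpolated between the surrounding concentrations. GI50 = concentration required for 50% inhibition of growth.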 The source made the active and inactive calls. No stated cut-off is given here; in the data, active = GI50 up to about 1.1 µM and inactive = higher.

What was measured:
Experiment in all cases: NCI anticancer screen, dose series, 48 h
[1] = tested on: MDA-MB-231
[2] = tested on: IGROV-1
[3] = tested on: RPMI-8226
[4] = tested on: K562
[5] = tested on: Malme-3M
[6] = tested on: NCI-H460
[7] = tested on: U-251
[8] = tested on: OVCAR-3
[9] = tested on: HCT-15
[10] = tested on: SR
[11] = tested on: A549
[12] = tested on: NCI-H522
[13] = tested on: CAKI-1
[14] = tested on: SF-268
[15] = tested on: SN12C
[16] = tested on: LOX IMVI
[17] = tested on: HOP-62
[18] = tested on: HCC 2998
[19] = tested on: SK-OV-3
[20] = tested on: A498

Compound	GI50 [1]	GI50 [2]	GI50 [3]	GI50 [4]	GI50 [5]	GI50 [6]	GI50 [7]	GI50 [8]	GI50 [9] [µM]	GI50 [10]	GI50 [11]	GI50 [12]	GI50 [13]	GI50 [14]	GI50 [15]	GI50 [16]	GI50 [17]	GI50 [18]	GI50 [19]	GI50 [20]
O=c1c(SSc2coc3cc(F)ccc3c2=O)coc2cc(F)ccc12	11.5 µM (inactive)	2.95 µM (inactive)	22.3 µM (inactive)	19.9 µM (inactive)	29.6 µM (inactive)	4.43 µM (inactive)	21.3 µM (inactive)	21.6 µM (inactive)	13.8	31.3 µM (inactive)	7.29 µM (inactive)	20.7 µM (inactive)	20.1 µM (inactive)	26.3 µM (inactive)	15.2 µM (inactive)	2.65 µM (inactive)	19.8 µM (inactive)	16.1 µM (inactive)		
CO/N=C(\C(=O)Nn1cn[n+](CC(=O)[O-])c1)c1csc(N)n1	> 10 µM (inactive)	> 10 µM (inactive)	> 10 µM (inactive)	> 10 µM (inactive)		> 10 µM (inactive)			> 10	> 10 µM (inactive)	> 10 µM (inactive)		> 10 µM (inactive)	> 10 µM (inactive)	> 10 µM (inactive)	> 10 µM (inactive)	> 10 µM (inactive)	> 10 µM (inactive)	> 10 µM (inactive)	
Cc1cc(C)c(OC(=O)Nc2cccc3ccccc23)c(-c2ccccc2)c1	25.5 µM (inactive)	36.5 µM (inactive)	22.5 µM (inactive)	41.8 µM (inactive)	32.4 µM (inactive)	47.9 µM (inactive)	37.8 µM (inactive)	24.5 µM (inactive)	34.4	19.6 µM (inactive)	32.6 µM (inactive)		33.7 µM (inactive)	12.6 µM (inactive)	38.2 µM (inactive)	24.8 µM (inactive)	65.8 µM (inactive)	27.7 µM (inactive)	67.6 µM (inactive)	
CO/C(=N\N=C\c1ccc(Cl)cc1Cl)c1ccncc1	> 10 µM (inactive)		6.24 µM (inactive)	> 10 µM (inactive)	> 10 µM (inactive)	> 10 µM (inactive)	> 10 µM (inactive)	> 10 µM (inactive)	> 10	> 10 µM (inactive)	> 10 µM (inactive)	> 10 µM (inactive)	> 10 µM (inactive)	> 10 µM (inactive)	> 10 µM (inactive)	> 10 µM (inactive)	> 10 µM (inactive)			
Clc1ccc(CSCCc2ccncc2)cc1Cl	15.4 µM (inactive)	20.8 µM (inactive)	14.6 µM (inactive)	19.3 µM (inactive)	21 µM (inactive)	31.8 µM (inactive)	15.2 µM (inactive)	16.1 µM (inactive)	22.9		28.1 µM (inactive)	15.4 µM (inactive)	38.5 µM (inactive)	21.9 µM (inactive)	17.4 µM (inactive)	> 10 µM (inactive)	22.6 µM (inactive)	18.2 µM (inactive)	27.8 µM (inactive)	13.2 µM (inactive)
CCc1ccccc1NC(=O)C(C#N)C1=C(Cl)C(=O)c2ccccc2C1=O (centres undefined)	7.03 µM (inactive)	12.6 µM (inactive)	12.4 µM (inactive)	8.04 µM (inactive)	6.07 µM (inactive)	19.7 µM (inactive)	15.4 µM (inactive)	5.69 µM (inactive)	14.7	21.6 µM (inactive)	21.9 µM (inactive)	13.5 µM (inactive)	20.3 µM (inactive)	21.7 µM (inactive)	13.1 µM (inactive)	13.2 µM (inactive)	19.1 µM (inactive)		36.6 µM (inactive)	
